We go through 1 compound from paper PMC4522657, “Identification of a DYRK1A Inhibitor that Induces Degradation of the Target Kinase using Co-chaperone CDC37 fused with Luciferase nanoKAZ” (Scientific Reports, 2015).

Assay type in all cases: biochemical
One assay deals with T1, MAP3K5_Cascade (Homo sapiens, UniProt Q99683).
T1 construct: purchased Carna Biosciences
The assay can be described thus: Kinase panel, CaNDY 1 µM. The settings on record: CaNDY 1 µM relative to DMSO.

The target of another assay is T2, PLK1 (Homo sapiens, UniProt P53350).
T2 construct: purchased Carna Biosciences
As to the kind of experiment: Kinase panel, CaNDY 1 µM. Conditions: CaNDY 1 µM relative to DMSO.

The target in another assay is T3, FER (Homo sapiens, UniProt P16591).
T3 construct: purchased Carna Biosciences
The assay can be described thus: Kinase panel, CaNDY 1 µM. The settings on record: CaNDY 1 µM relative to DMSO.

Another assay addresses T4, FGFR4(V550L) (Homo sapiens, UniProt P22455, V550L).
T4 construct: purchased Carna Biosciences
As to the kind of experiment: Kinase panel, CaNDY 1 µM. Conditions: CaNDY 1 µM relative to DMSO.

The target in another assay is T5, ROS (Homo sapiens, UniProt P08922).
T5 construct: purchased Carna Biosciences
As to the kind of experiment: Kinase panel, CaNDY 1 µM. Conditions: CaNDY 1 µM relative to DMSO.

In assay [1] the target is T6, DYRK1A (Homo sapiens, UniProt Q13627). The assay can be described thus: Kinase panel, CaNDY 1 µM. Set-up: purchased Carna Biosciences. An excerpt:
(§1) Detailed information on the assay conditions is available on the website of Carna Biosciences (http://www.carnabio.com/english/index.html; Kobe, Japan). In brief, full-length human recombinant kinases were expressed using a baculovirus expression system as amino-terminal GST-fusion proteins, and purified by glutathione-Sepharose chromatography. The GenBank accession numbers of DYRK1A, DYRK1B, DYRK2, and DYRK3 were NP_001387.2, NP_004705.1, NP_003574.1, and NP_003573.2. Kinase activities were evaluated by Off-chip Mobility Shift Assay after reaction of 1 μM of the substrate DYRKtide-F with ATP (25 μM for DYRK1A, 50 μM for DYRK1B, 10 μM for DYRK2, and 5 μM for DYRK3). For each compound, a DMSO solution was diluted in assay buffer to yield a final concentration of 1% DMSO. After incubation for one hour at room temperature, substrate phosphorylation was analyzed by electrophoretic separation of the substrate and products using a Caliper LC3000 platform (Caliper Life Sciences, Mountain View, CA, USA). The phosphorylated product (P)/(P + substrate) ratio was calculated at each concentration of each small molecule and the percent inhibition was expressed relative to a control assay in the absence of the small molecule. […] The IC50 of each compound was calculated by interpolation on a log-concentration-response curve fitted with a four-parameter logistic equation.
(§2) All kinase assays were carried out at Carna Biosciences. The inhibitory map was made with Kinome Render[36].

For the next assay, the target named is T7, Haspin (Homo sapiens, UniProt Q8TF76).
T7 sequence (Q8TF76 1-798): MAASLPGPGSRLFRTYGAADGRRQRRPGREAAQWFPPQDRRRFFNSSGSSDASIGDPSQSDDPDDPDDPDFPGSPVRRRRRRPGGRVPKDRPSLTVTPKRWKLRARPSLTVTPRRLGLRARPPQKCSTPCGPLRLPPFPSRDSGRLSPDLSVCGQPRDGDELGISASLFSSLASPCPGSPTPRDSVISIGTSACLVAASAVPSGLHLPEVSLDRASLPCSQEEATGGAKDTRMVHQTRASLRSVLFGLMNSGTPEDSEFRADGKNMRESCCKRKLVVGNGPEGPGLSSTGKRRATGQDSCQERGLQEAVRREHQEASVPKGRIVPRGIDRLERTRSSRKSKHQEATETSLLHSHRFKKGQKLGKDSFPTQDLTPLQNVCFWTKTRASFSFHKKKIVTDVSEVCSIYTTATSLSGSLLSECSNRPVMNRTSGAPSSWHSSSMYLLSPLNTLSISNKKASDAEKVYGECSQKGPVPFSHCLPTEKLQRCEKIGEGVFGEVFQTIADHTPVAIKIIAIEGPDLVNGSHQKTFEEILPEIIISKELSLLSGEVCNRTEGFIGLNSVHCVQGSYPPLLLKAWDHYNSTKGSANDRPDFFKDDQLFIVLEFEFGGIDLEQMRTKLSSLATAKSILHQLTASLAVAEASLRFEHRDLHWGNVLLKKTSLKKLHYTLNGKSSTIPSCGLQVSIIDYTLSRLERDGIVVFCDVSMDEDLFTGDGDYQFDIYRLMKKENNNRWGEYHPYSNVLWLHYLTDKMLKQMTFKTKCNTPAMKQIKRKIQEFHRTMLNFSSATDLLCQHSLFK
As to the kind of experiment: Kinase panel, CaNDY 1 µM. More on the design: purchased Carna Biosciences.
Description: as §1, §2

In the next assay the target is T8, TRKC (Homo sapiens, UniProt Q16288).
T8 construct: purchased Carna Biosciences
As to the kind of experiment: Kinase panel, CaNDY 1 µM. The settings on record: CaNDY 1 µM relative to DMSO.

The next assay concerns the target DYRK1B (Homo sapiens, UniProt Q9Y463). The assay can be described thus: In vitro kinase assay, substrate DYRKtide-F. Conditions: 50 μM ATP, 1 μM DYRKtide-F. Set-up: full-length human recombinant kinases were expressed using a baculovirus expression system as amino-terminal GST-fusion proteins; GST (N); purchased Carna Biosciences; host or cells: baculovirus expression system.
Description: as §1, with “Kinase activities were evaluated by Off-chip Mobility Shift Assay after reaction of 1 μM of the substrate DYRKtide-F with ATP (25 μM for DYRK1A, 50 μM for DYRK1B, 10 μM for DYRK2, and 5 μM for DYRK3).” left out

Assay [2] concerns the target T6, DYRK1A. The assay can be described thus: In vitro kinase assay, substrate DYRKtide-F. More on the design: full-length human recombinant kinases were expressed using a baculovirus expression system as amino-terminal GST-fusion proteins; GST (N); purchased Carna Biosciences; host or cells: baculovirus expression system. The settings on record: 25 μM ATP, 1 μM DYRKtide-F; read-out: IC50, substrate phosphorylation.
Description: as §1, with “Kinase activities were evaluated by Off-chip Mobility Shift Assay after reaction of 1 μM of the substrate DYRKtide-F with ATP (25 μM for DYRK1A, 50 μM for DYRK1B, 10 μM for DYRK2, and 5 μM for DYRK3).” left out

The target of another assay is T9, MAP2K5_Cascade (Homo sapiens, UniProt Q13163).
T9 construct: purchased Carna Biosciences
The assay can be described thus: Kinase panel, CaNDY 1 µM. Conditions: CaNDY 1 µM relative to DMSO.

The target in another assay is T10, TRKA (Homo sapiens, UniProt P04629).
T10 construct: purchased Carna Biosciences
As to the kind of experiment: Kinase panel, CaNDY 1 µM. The settings on record: CaNDY 1 µM relative to DMSO.

[3] abbreviates: 1 μM CaNDY, read-out: percentage inhibition.

T1 sequence (Q99683 whole entry): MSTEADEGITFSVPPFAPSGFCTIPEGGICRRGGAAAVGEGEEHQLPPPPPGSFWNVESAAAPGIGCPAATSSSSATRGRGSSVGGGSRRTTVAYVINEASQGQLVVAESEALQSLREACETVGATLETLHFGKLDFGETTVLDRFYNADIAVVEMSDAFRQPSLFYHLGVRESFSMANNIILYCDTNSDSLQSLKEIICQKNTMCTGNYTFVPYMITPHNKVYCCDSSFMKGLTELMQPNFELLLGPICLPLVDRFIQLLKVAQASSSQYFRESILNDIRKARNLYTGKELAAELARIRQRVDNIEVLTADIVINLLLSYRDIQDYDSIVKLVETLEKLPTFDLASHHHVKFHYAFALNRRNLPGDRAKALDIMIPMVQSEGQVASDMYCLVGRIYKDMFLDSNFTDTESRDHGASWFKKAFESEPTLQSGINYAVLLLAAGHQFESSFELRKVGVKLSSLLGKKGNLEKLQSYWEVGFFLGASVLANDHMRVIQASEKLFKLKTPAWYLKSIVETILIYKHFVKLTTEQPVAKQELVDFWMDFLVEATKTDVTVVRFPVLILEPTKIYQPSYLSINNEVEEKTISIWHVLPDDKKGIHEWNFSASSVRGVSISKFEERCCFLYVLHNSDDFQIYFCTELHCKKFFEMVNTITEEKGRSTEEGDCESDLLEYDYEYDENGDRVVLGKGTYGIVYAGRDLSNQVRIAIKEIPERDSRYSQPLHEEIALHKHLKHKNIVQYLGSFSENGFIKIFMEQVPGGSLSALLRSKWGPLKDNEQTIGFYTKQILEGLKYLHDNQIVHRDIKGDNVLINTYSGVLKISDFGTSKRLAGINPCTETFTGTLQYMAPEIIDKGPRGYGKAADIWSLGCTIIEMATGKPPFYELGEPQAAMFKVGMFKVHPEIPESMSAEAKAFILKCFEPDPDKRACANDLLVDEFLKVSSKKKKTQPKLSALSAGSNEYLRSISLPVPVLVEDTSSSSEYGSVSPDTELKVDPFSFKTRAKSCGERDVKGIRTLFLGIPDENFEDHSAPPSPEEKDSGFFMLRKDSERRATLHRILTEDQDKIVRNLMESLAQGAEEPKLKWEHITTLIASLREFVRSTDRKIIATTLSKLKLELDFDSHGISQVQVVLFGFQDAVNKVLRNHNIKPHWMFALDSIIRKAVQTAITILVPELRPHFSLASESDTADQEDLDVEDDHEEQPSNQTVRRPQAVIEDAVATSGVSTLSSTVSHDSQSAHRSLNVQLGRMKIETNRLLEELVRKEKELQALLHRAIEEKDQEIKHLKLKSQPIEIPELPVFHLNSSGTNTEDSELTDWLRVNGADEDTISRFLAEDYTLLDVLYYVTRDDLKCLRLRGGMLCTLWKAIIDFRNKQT
T8 sequence (Q16288 32-839): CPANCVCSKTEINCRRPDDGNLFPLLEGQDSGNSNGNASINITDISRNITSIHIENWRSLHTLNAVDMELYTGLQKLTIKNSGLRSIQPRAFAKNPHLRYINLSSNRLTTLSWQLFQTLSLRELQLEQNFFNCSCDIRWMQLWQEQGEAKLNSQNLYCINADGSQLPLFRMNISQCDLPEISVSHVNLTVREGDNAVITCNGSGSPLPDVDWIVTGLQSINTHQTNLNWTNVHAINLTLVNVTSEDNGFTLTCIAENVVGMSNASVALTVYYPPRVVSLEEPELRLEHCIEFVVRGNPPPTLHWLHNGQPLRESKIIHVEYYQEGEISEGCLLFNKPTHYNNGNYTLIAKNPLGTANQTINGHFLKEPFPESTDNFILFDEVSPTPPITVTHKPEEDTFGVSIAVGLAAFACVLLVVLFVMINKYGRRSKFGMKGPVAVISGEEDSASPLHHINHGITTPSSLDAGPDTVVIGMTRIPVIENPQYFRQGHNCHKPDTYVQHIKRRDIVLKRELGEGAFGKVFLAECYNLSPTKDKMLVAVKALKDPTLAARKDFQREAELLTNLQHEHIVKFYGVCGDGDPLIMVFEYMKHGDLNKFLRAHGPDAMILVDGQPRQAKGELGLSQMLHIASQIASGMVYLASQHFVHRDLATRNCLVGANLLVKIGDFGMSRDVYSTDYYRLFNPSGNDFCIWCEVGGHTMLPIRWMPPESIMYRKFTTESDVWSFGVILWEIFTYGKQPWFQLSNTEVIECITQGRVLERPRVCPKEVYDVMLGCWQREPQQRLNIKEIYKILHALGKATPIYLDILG
T4 sequence (P22455 22-802 V550L): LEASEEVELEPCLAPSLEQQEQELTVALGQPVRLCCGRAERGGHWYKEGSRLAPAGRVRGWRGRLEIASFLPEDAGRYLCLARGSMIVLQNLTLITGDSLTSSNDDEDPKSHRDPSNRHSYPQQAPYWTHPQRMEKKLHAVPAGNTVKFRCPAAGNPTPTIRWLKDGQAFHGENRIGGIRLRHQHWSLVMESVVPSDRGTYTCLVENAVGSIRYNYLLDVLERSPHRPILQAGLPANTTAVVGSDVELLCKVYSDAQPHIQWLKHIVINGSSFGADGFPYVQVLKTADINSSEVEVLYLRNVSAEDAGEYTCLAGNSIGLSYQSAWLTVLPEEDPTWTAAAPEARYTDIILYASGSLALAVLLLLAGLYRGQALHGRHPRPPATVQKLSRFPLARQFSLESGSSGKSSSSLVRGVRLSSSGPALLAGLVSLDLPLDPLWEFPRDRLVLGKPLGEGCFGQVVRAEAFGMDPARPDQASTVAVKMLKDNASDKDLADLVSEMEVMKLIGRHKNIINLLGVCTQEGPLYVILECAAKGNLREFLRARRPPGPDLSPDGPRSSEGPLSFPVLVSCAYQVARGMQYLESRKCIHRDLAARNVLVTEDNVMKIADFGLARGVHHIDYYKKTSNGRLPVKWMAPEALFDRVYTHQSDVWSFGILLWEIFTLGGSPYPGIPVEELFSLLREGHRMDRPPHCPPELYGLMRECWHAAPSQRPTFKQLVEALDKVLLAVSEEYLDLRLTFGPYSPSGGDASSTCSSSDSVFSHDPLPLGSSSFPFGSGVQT
T10 sequence (P04629 33-796): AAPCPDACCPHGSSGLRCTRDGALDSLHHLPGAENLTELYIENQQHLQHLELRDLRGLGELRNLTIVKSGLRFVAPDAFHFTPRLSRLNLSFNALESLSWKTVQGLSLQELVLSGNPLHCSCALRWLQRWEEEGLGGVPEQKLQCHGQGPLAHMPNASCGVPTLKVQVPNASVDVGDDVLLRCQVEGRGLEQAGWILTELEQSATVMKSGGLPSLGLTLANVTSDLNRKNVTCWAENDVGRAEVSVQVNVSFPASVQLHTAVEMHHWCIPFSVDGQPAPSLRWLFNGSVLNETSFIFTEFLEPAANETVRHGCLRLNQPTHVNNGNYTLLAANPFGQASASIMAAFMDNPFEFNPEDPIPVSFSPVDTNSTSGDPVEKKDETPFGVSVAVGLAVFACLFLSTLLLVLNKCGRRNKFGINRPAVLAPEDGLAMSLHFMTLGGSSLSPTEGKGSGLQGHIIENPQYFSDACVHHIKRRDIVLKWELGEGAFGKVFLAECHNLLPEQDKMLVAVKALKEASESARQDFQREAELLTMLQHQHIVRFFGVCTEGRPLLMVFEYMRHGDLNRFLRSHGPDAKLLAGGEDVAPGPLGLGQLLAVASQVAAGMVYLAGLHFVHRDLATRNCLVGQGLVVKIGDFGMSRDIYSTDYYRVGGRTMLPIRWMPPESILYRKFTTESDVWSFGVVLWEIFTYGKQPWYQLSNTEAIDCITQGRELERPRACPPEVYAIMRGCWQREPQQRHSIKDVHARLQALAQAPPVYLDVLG
DYRK1B, sequence (Q9Y463 whole entry, the tested form may be a part): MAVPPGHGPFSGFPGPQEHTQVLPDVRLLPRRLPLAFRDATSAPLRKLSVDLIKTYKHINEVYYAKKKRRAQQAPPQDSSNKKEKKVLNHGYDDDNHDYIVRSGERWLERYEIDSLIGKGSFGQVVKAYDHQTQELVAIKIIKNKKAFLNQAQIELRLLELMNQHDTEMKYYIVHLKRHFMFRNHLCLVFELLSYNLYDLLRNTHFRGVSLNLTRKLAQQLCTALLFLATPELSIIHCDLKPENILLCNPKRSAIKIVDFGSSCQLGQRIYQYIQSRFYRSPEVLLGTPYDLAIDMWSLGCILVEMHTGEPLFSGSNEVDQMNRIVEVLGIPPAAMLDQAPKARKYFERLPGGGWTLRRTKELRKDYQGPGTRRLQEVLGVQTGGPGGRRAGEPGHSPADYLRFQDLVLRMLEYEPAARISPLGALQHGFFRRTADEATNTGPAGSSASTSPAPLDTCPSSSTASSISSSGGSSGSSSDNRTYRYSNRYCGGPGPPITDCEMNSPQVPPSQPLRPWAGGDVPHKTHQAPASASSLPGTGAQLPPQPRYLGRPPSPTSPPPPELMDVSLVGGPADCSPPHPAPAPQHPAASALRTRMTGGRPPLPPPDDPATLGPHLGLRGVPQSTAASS
T2 sequence (P53350 whole entry): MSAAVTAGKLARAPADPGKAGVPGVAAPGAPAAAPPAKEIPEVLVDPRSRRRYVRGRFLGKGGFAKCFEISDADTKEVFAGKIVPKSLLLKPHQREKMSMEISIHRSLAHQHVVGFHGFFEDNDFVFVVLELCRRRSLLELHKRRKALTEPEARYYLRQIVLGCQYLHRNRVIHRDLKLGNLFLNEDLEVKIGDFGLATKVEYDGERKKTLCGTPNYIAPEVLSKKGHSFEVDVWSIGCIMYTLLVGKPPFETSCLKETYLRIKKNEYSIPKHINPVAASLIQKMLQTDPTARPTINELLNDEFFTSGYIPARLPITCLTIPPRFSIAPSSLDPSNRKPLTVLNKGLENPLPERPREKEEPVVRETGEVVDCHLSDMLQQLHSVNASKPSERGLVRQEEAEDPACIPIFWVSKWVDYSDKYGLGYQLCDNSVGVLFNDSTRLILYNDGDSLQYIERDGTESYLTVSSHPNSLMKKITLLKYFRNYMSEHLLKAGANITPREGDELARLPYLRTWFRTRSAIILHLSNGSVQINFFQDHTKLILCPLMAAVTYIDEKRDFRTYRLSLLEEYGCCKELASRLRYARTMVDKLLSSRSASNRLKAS

Usually remaining activity stands for the signal under treatment as a percentage of the control signal. By inhibition is commonly meant the percentage by which the read-out fell short of the control. As a reminder, the IC50 is the concentration at which inhibition is half-maximal. `[H]/N=C1/NC(=O)C(=Cc2ccc3c(c2)CCO3)S1` [CaNDY, (Z)-5-[(2,3-dihydrobenzofuran-5-yl)methylene]-2-iminothiazolidin-4-one]: the remaining activity at 1 µM on MAP3K5_Cascade was 103%; at PLK1, 99.2%; at FER, 98.6%; at FGFR4(V550L), 105%; on ROS, 103%; on DYRK1A [1] (CaNDY 1 µM relative to DMSO) it was 0.9%. In addition, the remaining activity at 1 µM was found to be 3.8% on Haspin (CaNDY 1 µM relative to DMSO), 101% on TRKC, 101% at MAP2K5_Cascade and 101% on TRKA. Moreover, the inhibition at 1 µM at DYRK1A [1] (setting [3]) and on Haspin (setting [3]) was more than 90% in each case. For the same compound, the IC50 at DYRK1B was determined as 24.1 nM; on DYRK1A [2] it was 7.9 nM.
